# Patent US20060094763A1, “Polymorphic forms of 6-[2-(methylcarbomoyl) phenyl sulfanyl]-3-E-[2-(pyridin-2-yl)ethenyl]indazole” (Agouron Pharmaceuticals, Inc., priority 2004, published 2006)
# What was measured:
# [1] = Aqueous solubility of polymorphic forms of Compound 1; format: physicochemical; conditions: for solubility: aqueous medium
# [2] = Physical and chemical storage stability of polymorphic forms (heat, humidity); conditions: for Time stable: 40° C. under 75% relative humidity
# [3] = Human metabolites of Compound 1; conditions: in vivo
# From the text: The chemical structures of three oxygenated metabolites, M12 (the sulfoxide of Compound 1), M15 (the sulfone of Compound 1) and M9 (a mixed sulfoxidized/N-oxidized product of Compound 1), were confirmed based on the comparison in chromatographic retention times and mass spectra of the in-vivo metabolites to their authentic reference standards. The chemical structure of the glucuronide (M7) of Compound 1 was confirmed by the isolation of the metabolite followed by NMR determination. […] The proposed structures (or elemental compositions) of M5 and its major fragment ions (m/z 342, 311, 265, and 237) were all highly consistent with the elemental compositions determined by accurate mass measurement (with mass measurement accuracy ≦1.2 ppm for all). The definitive structures of metabolites M8a, M12a and M14 are currently unknown.
# [4] = Salt screening: solubility of in situ acid salts of Compound 1 in 100 mM acid solutions (HPLC); conditions: 100 mM acid solution, excess solid
# Method: To ensure that the maximum solubility level was reached, the samples were checked periodically to ensure that excess solid was present. After 8 days 400 μL of the mixture was removed and centrifuged at 14,000 rpm for 5 minutes. 100 μL of the supernatant was then removed, diluted with 900 μL of a 1:1 mixture of acetonitrile/methanol, and then analyzed by HPLC.
compound,measurement,setting,value
"CNC(=O)c1ccccc1Sc1ccc2c(/C=C/c3ccccn3)n[nH]c2c1 [Form I, 6-[2-(methylcarbamoyl)phenylsulfanyl]-3-E-[2-(pyridin-2-yl)ethenyl]indazole]",solubility,"[1]; pH 2, simulated gastric fluid, pH 2",179 µg/mL
same,Aqueous solubility,[1]; pH 6.5,9 µg/mL
same,Time stable,[2],at least 13 days
same,Chemical stability,[2]; 80° C.,chemically stable
"CNC(=O)c1ccccc1Sc1ccc2c(/C=C/c3ccccn3)n[nH]c2c1 [Compound 1, 6-[2-(methylcarbamoyl)phenylsulfanyl]-3-E-[2-(pyridin-2-yl)ethenyl]indazole]",Metabolism in humans,[3],extensive metabolism
Benzene sulfonic acid,Solubility 8 days,[4]; stirred 8 days in the dark,10 µg/mL
same,Solubility 14 days,[4]; stirred 14 days in the dark,11 µg/mL
"CNC(=O)c1ccccc1Sc1ccc2c(/C=C/c3ccccn3)n[nH]c2c1 [Form IV, 6-[2-(methylcarbamoyl)phenylsulfanyl]-3-E-[2-(pyridin-2-yl)ethenyl]indazole]",solubility,"[1]; pH 1, simulated gastric fluid, pH 1",~550 µg/mL
same,solubility,"[1]; pH 4, aqueous buffer, pH 4",~6 µg/mL
same,solubility,"[1]; pH 8, aqueous buffer, pH 8",~2 µg/mL
same,Aqueous solubility,[1]; pH 2,about 157 μg/mL
same,Aqueous solubility,[1]; pH 6.5,about 2 μg/mL
same,Time stable,[2],at least 30 days
same,Time physically and chemically stable,[2]; 80° C.,at least 30 days
